Measurements from US20200032271A1, “COMBINATION THERAPY WITH LIPOSOMAL ANTISENSE OLIGONUCLEOTIDES” (Bio-Path Holdings, Inc., priority 2016, published 2020).
Values joined by “and” are separate entries in the source; they are usually repeats but may differ in a detail not shown here. Identical values can stand only once. Marks after values point to notes of the source that are not given here. [PEt] = P-ethoxy (ethyl phosphotriester) internucleoside linkage

Experiment: Adverse events in study 2003-0578 (NCI CTCAE grading)
[1] = patient 1, 5 mg/m^2 monotherapy
[2] = patient 10, 5 mg/m^2 monotherapy

Substance: BP1001: liposome-incorporated P-ethoxy antisense oligodeoxynucleotide (5′-ATATTTGGCGATGGCTTC-3′, SEQ ID NO: 1) specific to grb2 mRNA, in neutral DOPC liposomes (DNA, all [PEt], methylation of C not given here; incorporated in neutral DOPC liposomes)
- Blood and lymphatic system disorders ≥Grade 3, number of patients (monotherapy 60 mg/m^2 (n = 3)): 0
- Cardiac disorders ≥Grade 3, number of patients (monotherapy 60 mg/m^2 (n = 3)): 0
- Cataract ≥Grade 3, number of patients (monotherapy 60 mg/m^2 (n = 3)): 0
- Dyspnea ≥Grade 3, number of patients (monotherapy 60 mg/m^2 (n = 3)): 0
- Extremity Lower Edema ≥Grade 3, number of patients (monotherapy 60 mg/m^2 (n = 3)): 0
- Eye disorders ≥Grade 3, number of patients (monotherapy 60 mg/m^2 (n = 3)): 0
- Febrile neutropenia ≥Grade 3, number of patients (monotherapy 60 mg/m^2 (n = 3)): 0
- Gastrointestinal disorders ≥Grade 3, number of patients (monotherapy 60 mg/m^2 (n = 3)): 0
- General disorders and administration site conditions ≥Grade 3, number of patients (monotherapy 60 mg/m^2 (n = 3)): 0
- Hallucinations ≥Grade 3, number of patients (monotherapy 60 mg/m^2 (n = 3)): 0
- Heart failure ≥Grade 3, number of patients (monotherapy 60 mg/m^2 (n = 3)): 0
- Hepatic failure ≥Grade 3, number of patients (monotherapy 60 mg/m^2 (n = 3)): 0
- Hepatobiliary disorders ≥Grade 3, number of patients (monotherapy 60 mg/m^2 (n = 3)): 0
- Hypocalcemia ≥Grade 3, number of patients (monotherapy 60 mg/m^2 (n = 3)): 0
- Hypoglycemia ≥Grade 3, number of patients (monotherapy 60 mg/m^2 (n = 3)): 0
- Hypokalemia ≥Grade 3, number of patients (monotherapy 60 mg/m^2 (n = 3)): 0
- Hyponatremia ≥Grade 3, number of patients (monotherapy 60 mg/m^2 (n = 3)): 0
- Hypotension ≥Grade 3, number of patients (monotherapy 60 mg/m^2 (n = 3)): 0
- Hypovolemia ≥Grade 3, number of patients (monotherapy 60 mg/m^2 (n = 3)): 0
- Hypoxia ≥Grade 3, number of patients (monotherapy 60 mg/m^2 (n = 3)): 0
- Investigations ≥Grade 3, number of patients (monotherapy 60 mg/m^2 (n = 3)): 0
- Leukocytosis ≥Grade 3, number of patients (monotherapy 60 mg/m^2 (n = 3)): 0
- Metabolism and nutritional disorders ≥Grade 3, number of patients (monotherapy 60 mg/m^2 (n = 3)): 0
- Multi-organ failure ≥Grade 3, number of patients (monotherapy 60 mg/m^2 (n = 3)): 0
- Musculoskeletal and connective tissue disorders ≥Grade 3, number of patients (monotherapy 60 mg/m^2 (n = 3)): 0
- Neoplasms benign, malignant, and unspecified (incl. cysts and polyps) ≥Grade 3, number of patients (monotherapy 60 mg/m^2 (n = 3)): 1
- Patients with AEs ≥Grade 3, number of patients (monotherapy 60 mg/m^2 (n = 3)): 1
- Penile Pain ≥Grade 3, number of patients (monotherapy 60 mg/m^2 (n = 3)): 0
- Platelet count decreased ≥Grade 3, number of patients (monotherapy 60 mg/m^2 (n = 3)): 0
- Pneumonia ≥Grade 3, number of patients (monotherapy 60 mg/m^2 (n = 3)): 0
- Psychiatric disorders ≥Grade 3, number of patients (monotherapy 60 mg/m^2 (n = 3)): 0
- Renal and urinary disorders ≥Grade 3, number of patients (monotherapy 60 mg/m^2 (n = 3)): 0
- Reproductive system and breast disorders ≥Grade 3, number of patients (monotherapy 60 mg/m^2 (n = 3)): 0
- Respiratory distress ≥Grade 3, number of patients (monotherapy 60 mg/m^2 (n = 3)): 0
- Respiratory failure ≥Grade 3, number of patients (monotherapy 60 mg/m^2 (n = 3)): 0
- Respiratory, thoracic, and mediastinal disorders ≥Grade 3, number of patients (monotherapy 60 mg/m^2 (n = 3)): 0
- Tumor lysis syndrome ≥Grade 3, number of patients (monotherapy 60 mg/m^2 (n = 3)): 0
- Vascular disorders ≥Grade 3, number of patients (monotherapy 60 mg/m^2 (n = 3)): 0
- AML progression, number of patients (monotherapy 90 mg/m^2 (n = 4)): 2
- Abdominal Pain ≥Grade 3, number of patients (monotherapy 90 mg/m^2 (n = 4)): 0
- Acidosis ≥Grade 3, number of patients (monotherapy 90 mg/m^2 (n = 4)): 0
- Acute kidney injury ≥Grade 3, number of patients (monotherapy 90 mg/m^2 (n = 4)): 0
- Asthenia ≥Grade 3, number of patients (monotherapy 90 mg/m^2 (n = 4)): 1
- Back Pain ≥Grade 3, number of patients (monotherapy 90 mg/m^2 (n = 4)): 0
- Blood and lymphatic system disorders ≥Grade 3, number of patients (monotherapy 90 mg/m^2 (n = 4)): 1
- Cardiac disorders ≥Grade 3, number of patients (monotherapy 90 mg/m^2 (n = 4)): 0
- Cataract ≥Grade 3, number of patients (monotherapy 90 mg/m^2 (n = 4)): 0
- Dyspnea ≥Grade 3, number of patients (monotherapy 90 mg/m^2 (n = 4)): 1
- Extremity Lower Edema ≥Grade 3, number of patients (monotherapy 90 mg/m^2 (n = 4)): 0
- Eye disorders ≥Grade 3, number of patients (monotherapy 90 mg/m^2 (n = 4)): 0
- Febrile neutropenia ≥Grade 3, number of patients (monotherapy 90 mg/m^2 (n = 4)): 0
- Gastrointestinal disorders ≥Grade 3, number of patients (monotherapy 90 mg/m^2 (n = 4)): 0
- General disorders and administration site conditions ≥Grade 3, number of patients (monotherapy 90 mg/m^2 (n = 4)): 1
- Hallucinations ≥Grade 3, number of patients (monotherapy 90 mg/m^2 (n = 4)): 0
- Heart failure ≥Grade 3, number of patients (monotherapy 90 mg/m^2 (n = 4)): 0
- Hepatic failure ≥Grade 3, number of patients (monotherapy 90 mg/m^2 (n = 4)): 0
- Hepatobiliary disorders ≥Grade 3, number of patients (monotherapy 90 mg/m^2 (n = 4)): 0
- Hypocalcemia ≥Grade 3, number of patients (monotherapy 90 mg/m^2 (n = 4)): 1
- Hypoglycemia ≥Grade 3, number of patients (monotherapy 90 mg/m^2 (n = 4)): 0
- Hypokalemia ≥Grade 3, number of patients (monotherapy 90 mg/m^2 (n = 4)): 1
- Hyponatremia ≥Grade 3, number of patients (monotherapy 90 mg/m^2 (n = 4)): 1
- Hypotension ≥Grade 3, number of patients (monotherapy 90 mg/m^2 (n = 4)): 0
- Hypovolemia ≥Grade 3, number of patients (monotherapy 90 mg/m^2 (n = 4)): 0
- Hypoxia ≥Grade 3, number of patients (monotherapy 90 mg/m^2 (n = 4)): 0
- Investigations ≥Grade 3, number of patients (monotherapy 90 mg/m^2 (n = 4)): 1
- Leukocytosis ≥Grade 3, number of patients (monotherapy 90 mg/m^2 (n = 4)): 1
- Metabolism and nutritional disorders ≥Grade 3, number of patients (monotherapy 90 mg/m^2 (n = 4)): 3
- Multi-organ failure ≥Grade 3, number of patients (monotherapy 90 mg/m^2 (n = 4)): 0
- Musculoskeletal and connective tissue disorders ≥Grade 3, number of patients (monotherapy 90 mg/m^2 (n = 4)): 0
- Neoplasms benign, malignant, and unspecified (incl. cysts and polyps) ≥Grade 3, number of patients (monotherapy 90 mg/m^2 (n = 4)): 0
- Patients with AEs ≥Grade 3, number of patients (monotherapy 90 mg/m^2 (n = 4)): 4
- Penile Pain ≥Grade 3, number of patients (monotherapy 90 mg/m^2 (n = 4)): 0
- Platelet count decreased ≥Grade 3, number of patients (monotherapy 90 mg/m^2 (n = 4)): 1^a
- Pneumonia ≥Grade 3, number of patients (monotherapy 90 mg/m^2 (n = 4)): 2
- Psychiatric disorders ≥Grade 3, number of patients (monotherapy 90 mg/m^2 (n = 4)): 0
- Renal and urinary disorders ≥Grade 3, number of patients (monotherapy 90 mg/m^2 (n = 4)): 0
- Reproductive system and breast disorders ≥Grade 3, number of patients (monotherapy 90 mg/m^2 (n = 4)): 0
- Respiratory distress ≥Grade 3, number of patients (monotherapy 90 mg/m^2 (n = 4)): 0
- Respiratory failure ≥Grade 3, number of patients (monotherapy 90 mg/m^2 (n = 4)): 0
- Respiratory, thoracic, and mediastinal disorders ≥Grade 3, number of patients (monotherapy 90 mg/m^2 (n = 4)): 1
- Tumor lysis syndrome ≥Grade 3, number of patients (monotherapy 90 mg/m^2 (n = 4)): 0
- Vascular disorders ≥Grade 3, number of patients (monotherapy 90 mg/m^2 (n = 4)): 0
- Dose-limiting Toxicity (DLT): Coagulopathy [1]: No
- Dose-limiting Toxicity (DLT): Confusion [1]: No
- Dose-limiting Toxicity (DLT): Diarrhea [1]: No
- Dose-limiting Toxicity (DLT): Edema (limbs) [1]: No
- Dose-limiting Toxicity (DLT): Fever (pyrexia) [1]: No
- Dose-limiting Toxicity (DLT): Hyperkalemia [1]: No
- Dose-limiting Toxicity (DLT): Hypocalcemia [1]: No
- Dose-limiting Toxicity (DLT): Hypokalemia [1]: No
- Dose-limiting Toxicity (DLT): Mucositis [1]: No and Yes ^a
- Dose-limiting Toxicity (DLT): Multi-organ failure [1]: No
- Dose-limiting Toxicity (DLT): Nausea [1]: No
- Dose-limiting Toxicity (DLT): Pain [1]: No
- Dose-limiting Toxicity (DLT): Pain in extremity [1]: No
- Dose-limiting Toxicity (DLT): Palmar-plantar erythrodysesthesia (hand and foot) syndrome [1]: Yes ^a
- Dose-limiting Toxicity (DLT): Pruritus [1]: No
- Grade: Coagulopathy (related to study drug) [1]: 1
- Grade: Confusion [1]: 1
- Grade: Diarrhea [1]: 1
- Grade: Edema (limbs) [1]: 2
- Grade: Fever (pyrexia) [1]: 1
- Grade: Hyperkalemia [1]: 2
- Grade: Hypokalemia [1]: 3
- Grade: Mucositis [1]: 2 and 4
- Grade: Multi-organ failure [1]: 5
- Grade: Nausea [1]: 2
- Grade: Pain [1]: 2
- Grade: Pain in extremity [1]: 2
- Grade: Palmar-plantar erythrodysesthesia (hand and foot) syndrome [1]: 3
- Grade: Pruritus [1]: 1
- Dose-limiting Toxicity (DLT): Blood creatinine increased [2]: No
- Grade: Blood creatinine increased [2]: 2
